Assay results from patent US6737383B1, “Herbicidal oxadiazolidines” (priority 1999, dated 2004).

Experiments:
bedstraw = experiment: Test B pre/postemergence bedstraw; assay type: in vivo, Galium aparine
Method in brief: (§1)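 Test chemicals in a non-phytotoxic solvent mixture with surfactant were sprayed preemergence onto planted seeds and postemergence onto plants 2 to 18 cm tall (1- to 4-leaf stage). After twelve to sixteen days in a greenhouse, injury was visually rated against untreated controls from 0 (no effect) to 10 (complete control).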

corn = experiment: Test B pre/postemergence corn; assay type: in vivo, Zea mays
Method in brief: as §1

blackgrass = experiment: Test B pre/postemergence blackgrass; assay type: in vivo, Alopecurus myosuroides
Method in brief: as §1

pigweed = experiment: Test B pre/postemergence pigweed; assay type: in vivo, Amaranthus retroflexus
Method in brief: as §1

surinam grass = experiment: Test B pre/postemergence surinam grass; assay type: in vivo, Brachiaria decumbens; details: Postemergence
Method in brief: as §1

crabgrass = experiment: Test B pre/postemergence crabgrass; assay type: in vivo, Digitaria sanguinalis
Method in brief: as §1

wild oat = experiment: Test B pre/postemergence wild oat; assay type: in vivo, Avena fatua
Method in brief: as §1

velvetleaf = experiment: Test B pre/postemergence velvetleaf; assay type: in vivo, Abutilon theophrasti
Method in brief: as §1

sugar beet = experiment: Test B pre/postemergence sugar beet; assay type: in vivo, Beta vulgaris
Method in brief: as §1

rape = experiment: Test B pre/postemergence rape; assay type: in vivo, Brassica napus
Method in brief: as §1

cocklebur = experiment: Test B pre/postemergence cocklebur; assay type: in vivo, Xanthium strumarium
Method in brief: as §1

soybean = experiment: Test B pre/postemergence soybean; assay type: in vivo, Glycine max
Method in brief: as §1

giant foxtail = experiment: Test B pre/postemergence giant foxtail; assay type: in vivo, Setaria faberii
Method in brief: as §1

purple nutsedge = experiment: Test B pre/postemergence purple nutsedge; assay type: in vivo, Cyperus rotundus
Method in brief: as §1

morningglory = experiment: Test B pre/postemergence morningglory; assay type: in vivo, Ipomoea hederacea
Method in brief: as §1

wheat = experiment: Test B pre/postemergence wheat; assay type: in vivo, Triticum aestivum
Method in brief: as §1

[1] = Postemergence, Rate 62 g/ha, scale 0 to 10, 0 is no effect, 10 is complete control
[2] = Postemergence, Rate 125 g/ha, scale of 0 to 10 where 0 is no effect and 10 is complete control
[3] = Preemergence, Rate 125 g/ha, scale of 0 to 10 where 0 is no effect and 10 is complete control
[4] = Preemergence, Rate 250 g/ha, scale 0 (no effect) to 10 (complete control)
[5] = Rate 62 g/ha, Preemergence, scale 0 to 10
[6] = Rate 250 g/ha, Postemergence, scale 0 to 10, 0 is no effect, 10 is complete control
[7] = Rate 500 g/ha, Postemergence, scale 0 to 10, 0 is no effect, 10 is complete control
[8] = Rate 500 g/ha, Preemergence, scale 0 to 10 (0 no effect, 10 complete control)

In the case of `CC(C)N(C(=O)n1oc(=O)n(C(C)C(=S)N(C)C)c1=O)c1ccc(F)cc1F` (stereo not shown) [Compound 739], the “Plant response rating, Bedstraw” value (bedstraw; [1]) is reported as 3, the “Bedstraw plant response rating” value (bedstraw; [2]) is reported as 3 and the “Plant response rating, Bedstraw” value (bedstraw; [3]) is reported as 10. For the same molecule, the “Bedstraw plant response rating” value (bedstraw; [4]) was 10, the “Bedstraw plant response rating” value (bedstraw; [5]) was 0 and the “Bedstraw plant response rating” value (bedstraw; [6]) was 4. The “Bedstraw plant response rating” value (bedstraw; [7]) was 6, the “Bedstraw plant response rating” value (bedstraw; [8]) was 10 and the “Plant response rating, Corn” value (corn; [1]) was 0. The “Corn plant response rating” value (corn; [2]) was 0, the “Plant response rating, Corn” value (corn; [3]) was 0 and the “Corn plant response rating” value (corn; [4]) was 2. For the same molecule, the “Corn plant response rating” value (corn; [5]) was 0, the “Corn plant response rating” value (corn; [6]) was 0 and the “Corn plant response rating” value (corn; [7]) was 0. The “Corn plant response rating” value (corn; [8]) was 2, the “Plant response rating, Blackgrass” value (blackgrass; [1]) was 0 and the “Blackgrass plant response rating” value (blackgrass; [2]) was 3. For the same molecule, the “Plant response rating, Blackgrass” value (blackgrass; [3]) was 3, the “Blackgrass plant response rating” value (blackgrass; [4]) was 3 and the “Blackgrass plant response rating” value (blackgrass; [5]) was 2. The “Blackgrass plant response rating” value (blackgrass; [6]) was 3, the “Blackgrass plant response rating” value (blackgrass; [7]) was 6 and the “Blackgrass plant response rating” value (blackgrass; [8]) was 10. The “Plant response rating, Redroot pigweed” value (pigweed; [1]) was 0, the “Redroot pigweed plant response rating” value (pigweed; [2]) was 3 and the “Plant response rating, Redroot pigweed” value (pigweed; [3]) was 2. For the same molecule, the “Redroot pigweed plant response rating” value (pigweed; [4]) was 9, the “Redroot pigweed plant response rating” value (pigweed; [5]) was 2 and the “Redroot pigweed plant response rating” value (pigweed; [6]) was 3. The “Redroot pigweed plant response rating” value (pigweed; [7]) was 5, the “Redroot pigweed plant response rating” value (pigweed; [8]) was 10 and the “Plant response rating, B. signalgrass” value (surinam grass; Rate 62 g/ha, scale 0 to 10, 0 is no effect, 10 is complete control) was 0. For the same molecule, the “B. signalgrass plant response rating” value (surinam grass; Rate 125 g/ha, scale of 0 to 10 where 0 is no effect and 10 is complete control) was 2, the “B. signalgrass plant response rating” value (surinam grass; Rate 250 g/ha, scale 0 to 10, 0 is no effect, 10 is complete control) was 2 and the “B. signalgrass plant response rating” value (surinam grass; Rate 500 g/ha, scale 0 to 10, 0 is no effect, 10 is complete control) was 7. For the same molecule, the “Plant response rating, Crabgrass” value (crabgrass; [1]) was 4, the “Crabgrass plant response rating” value (crabgrass; [2]) was 9 and the “Plant response rating, Crabgrass” value (crabgrass; [3]) was 2. For the same molecule, the “Crabgrass plant response rating” value (crabgrass; [4]) was 9, the “Crabgrass plant response rating” value (crabgrass; [5]) was 2 and the “Crabgrass plant response rating” value (crabgrass; [7]) was 9. For the same molecule, the “Crabgrass plant response rating” value (crabgrass; [8]) was 10, the “Plant response rating, Wild oats” value (wild oat; [1]) was 0 and the “Wild oats plant response rating” value (wild oat; [2]) was 0. For the same molecule, the “Plant response rating, Wild oats” value (wild oat; [3]) was 0, the “Wild oats plant response rating” value (wild oat; [4]) was 0 and the “Wild oats plant response rating” value (wild oat; [5]) was 0. The “Wild oats plant response rating” value (wild oat; [6]) was 0, the “Wild oats plant response rating” value (wild oat; [7]) was 0 and the “Wild oats plant response rating” value (wild oat; [8]) was 4. For the same molecule, the “Plant response rating, Velvetleaf” value (velvetleaf; [1]) was 0, the “Velvetleaf plant response rating” value (velvetleaf; [2]) was 0 and the “Plant response rating, Velvetleaf” value (velvetleaf; [3]) was 0. For the same molecule, the “Velvetleaf plant response rating” value (velvetleaf; [4]) was 2, the “Velvetleaf plant response rating” value (velvetleaf; [5]) was 0 and the “Velvetleaf plant response rating” value (velvetleaf; [6]) was 0. For the same molecule, the “Velvetleaf plant response rating” value (velvetleaf; [7]) was 3, the “Velvetleaf plant response rating” value (velvetleaf; [8]) was 3 and the “Plant response rating, Sugarbeets” value (sugar beet; [1]) was 3. The “Sugarbeets plant response rating” value (sugar beet; [2]) was 3, the “Plant response rating, Sugarbeets” value (sugar beet; [3]) was 2 and the “Sugarbeets plant response rating” value (sugar beet; [4]) was 2. For the same molecule, the “Sugarbeets plant response rating” value (sugar beet; [5]) was 2, the “Sugarbeets plant response rating” value (sugar beet; [6]) was 3 and the “Sugarbeets plant response rating” value (sugar beet; [7]) was 4. The “Sugarbeets plant response rating” value (sugar beet; [8]) was 4, the “Plant response rating, Rape” value (rape; [1]) was 0 and the “Rape plant response rating” value (rape; [2]) was 0. The “Plant response rating, Rape” value (rape; [3]) was 0, the “Rape plant response rating” value (rape; [4]) was 0 and the “Rape plant response rating” value (rape; [5]) was 0. For the same molecule, the “Rape plant response rating” value (rape; [6]) was 0, the “Rape plant response rating” value (rape; [7]) was 2 and the “Rape plant response rating” value (rape; [8]) was 2. The “Plant response rating, Cocklebur” value (cocklebur; [1]) was 2, the “Cocklebur plant response rating” value (cocklebur; [2]) was 2 and the “Plant response rating, Cocklebur” value (cocklebur; [3]) was 0. The “Cocklebur plant response rating” value (cocklebur; [4]) was 0, the “Cocklebur plant response rating” value (cocklebur; [5]) was 0 and the “Cocklebur plant response rating” value (cocklebur; [6]) was 2. For the same molecule, the “Cocklebur plant response rating” value (cocklebur; [7]) was 3, the “Cocklebur plant response rating” value (cocklebur; [8]) was 0 and the “Plant response rating, Soybean” value (soybean; [1]) was 3. For the same molecule, the “Soybean plant response rating” value (soybean; [2]) was 3, the “Plant response rating, Soybean” value (soybean; [3]) was 0 and the “Soybean plant response rating” value (soybean; [4]) was 0. For the same molecule, the “Soybean plant response rating” value (soybean; [5]) was 0, the “Soybean plant response rating” value (soybean; [6]) was 4 and the “Soybean plant response rating” value (soybean; [7]) was 5. The “Soybean plant response rating” value (soybean; [8]) was 0, the “Plant response rating, Giant foxtail” value (giant foxtail; [1]) was 7 and the “Giant foxtail plant response rating” value (giant foxtail; [2]) was 9. The “Plant response rating, Giant foxtail” value (giant foxtail; [3]) was 9, the “Giant foxtail plant response rating” value (giant foxtail; [4]) was 9 and the “Giant foxtail plant response rating” value (giant foxtail; [5]) was 9. The “Giant foxtail plant response rating” value (giant foxtail; [6]) was 9, the “Giant foxtail plant response rating” value (giant foxtail; [7]) was 9 and the “Giant foxtail plant response rating” value (giant foxtail; [8]) was 10. For the same molecule, the “Plant response rating, Nutsedge” value (purple nutsedge; [1]) was 0, the “Plant response rating, Nutsedge” value (purple nutsedge; [3]) was 0 and the “Nutsedge plant response rating” value (purple nutsedge; [4]) was 0. For the same molecule, the “Nutsedge plant response rating” value (purple nutsedge; [5]) was 0, the “Nutsedge plant response rating” value (purple nutsedge; [6]) was 0 and the “Nutsedge plant response rating” value (purple nutsedge; [7]) was 3. For the same molecule, the “Nutsedge plant response rating” value (purple nutsedge; [8]) was 0, the “Plant response rating, Morningglory” value (morningglory; [1]) was 6 and the “Plant response rating, Morningglory” value (morningglory; [3]) was 0. For the same molecule, the “Morningglory plant response rating” value (morningglory; [4]) was 0, the “Morningglory plant response rating” value (morningglory; [5]) was 0 and the “Morningglory plant response rating” value (morningglory; [6]) was 6. For the same molecule, the “Morningglory plant response rating” value (morningglory; [7]) was 8, the “Morningglory plant response rating” value (morningglory; [8]) was 0 and the “Plant response rating, Wheat” value (wheat; [1]) was 0. For the same molecule, the “Wheat plant response rating” value (wheat; [2]) was 0, the “Plant response rating, Wheat” value (wheat; [3]) was 0 and the “Wheat plant response rating” value (wheat; [4]) was 0. For the same molecule, the “Wheat plant response rating” value (wheat; [5]) was 0, the “Wheat plant response rating” value (wheat; [6]) was 2 and the “Wheat plant response rating” value (wheat; [7]) was 6. For the same molecule, the “Wheat plant response rating” value (wheat; [8]) was 3.
